From patent publication US5493027A, “Anticonvulsive agents and uses thereof” (priority 1993, dated 1996)
“Also recorded” adds a separate entry of the source. Like-named read-outs stand apart in the source and are kept apart here.

Assays:
[1] = test system: pentylenetetrazole (Metrazol) induced seizures; experiment: Subcutaneous pentylenetetrazole (Metrazol) seizure threshold test (Met) in mice; format: in vivo, male Carworth Farms number-1 mice; details: for (Maximum Ineffective) Intraperitoneal Dose, Met: Table 7, value in parentheses = maximum ineffective dose; for minimal effective dose: Mus musculus, ip; for Sc MET: mice i.p.
Procedure: (§1) Compounds were screened for anticonvulsant activity in male Carworth Farms number-1 mice. Test solutions of all compounds were prepared in 30% polyethylene glycol 400, and animals were dosed intraperitoneally at either 30 minutes or 4 hours prior to testing. Testing was conducted on four mice at each of three dose levels (30, 100, and 300 mg/kg).
(§2) In the subcutaneous pentylenetetrazole (Metrazol) seizure threshold test(met), 85 mg/kg pentylenetetrazole was administered as a 0.5% solution in the posterior midline. Protection in this test was defined as a failure to observe a single episode of clonic spasms of at least 5 s duration during the 30 minute period following administration of the convulsive agent.
as §1, with “Biological testing--Compounds” for “Compounds”, “number-one” for “number-1”, “min” for “minutes”, “h” for “hours”
as §2, with “test (Met),” for “test(met),”, “min” for “minute”

[2] = test system: neurological deficit (rotorod); experiment: Rotorod test for neurological deficit (TOX) in mice; format: in vivo, male Carworth Farms number-1 mice
Procedure: as §1
(§3) Animals were also tested for neurological deficit using the rotorod. After treatment, the animal was placed on a 1 inch diameter knurled plastic rod rotating at 6 rpm. Neurologic deficit was defined as the failure of the animal to remain on the rod for 1 minute.
as §1, with “Biological testing--Compounds” for “Compounds”, “number-one” for “number-1”, “min” for “minutes”, “h” for “hours”
(§4) Animals were also tested for neurological deficit using the rotorod. After treatment, the animal was placed on a 1 inch diameter knurled plastic rod rotating at 6 rpm. Neurologic deficit was defined as the failure of the animal to remain on the rod for 1 min.

[3] = target: T1, strychnine-insensitive glycine binding site of the NMDA receptor (Rattus norvegicus, UniProt P35439); experiment: Inhibition of [3H]glycine specific binding (strychnine-insensitive) in rat cerebral cortex membranes; details: 10 uM compound
T1 construct: Membranes were prepared from rat cerebral cortex; from tissue; host or cells: rat cerebral cortex, "buffy coat" membranes
Procedure: Binding Studies--Inhibition of [^3 H]glycine specific binding was assayed using [^3 H]glycine (43 Ci/mmol) obtained from DuPont-New England Nuclear. […] Membranes were prepared from rat cerebral cortex and assays were conducted in Na-free 50 mM HEPES (Sigma) at pH 7.4. Membranes were incubated in a final volume of 1 ml with 20 nM [^3 H]glycine and a 10 uM concentration of the test compound. Although experience has shown that [^3 H]glycine binding in this preparation is strychnine insensitive, 10 uM strychnine was added to the assay mixtures to eliminate the possibility that any effects studied could be mediated through a strychnine-sensitive process. Incubation was continued for 20 min at 4° C. Non-specific binding was determined in the presence of 1 mM glycine and subtracted. All conditions were tested in triplicate in 3 different assays. Binding was terminated using a Brandel M-24C cell harvester employing rapid filtration through GF/C glass fiber filters pre-soaked in 1% (V/V) polyethylenimine. Filters were washed twice with 5 ml buffer cooled to 4° C. Radioactivity bound to the filters was determined with a Beckman LS-500OTD liquid scintillation counter.

[4] = test system: seizures induced by electroshock and pentylenetetrazole; experiment: Anticonvulsant testing, overall (MES and Met); format: in vivo, male Carworth Farms number-1 mice; details: for anticonvulsant activity (words) / minimal effective dose: mice, intraperitoneal; for minimal effective dose: Mus musculus, ip, read-out: dose level with anticonvulsant activity (test not given); for CLASS: Phase I Identification: mice, i.p., classes not defined in the patent
Procedure: as §1
(§5) Maximal electroshock seizures (MES) were elicited with a 60 cycle alternatiing current of 50-mA intensity (five to seven times that necessary to evoke minimal electroshock threshold seizures). Current was delivered via corneal electrodes for 0.2 s. A drop of 0.9% saline was instilled in the eye prior to application of electrodes. Abolition of the hindlimb tonic extension component of the seizure was defined as protection in the MES test.
as §2
as §1, with “Biological testing--Compounds” for “Compounds”, “number-one” for “number-1”, “min” for “minutes”, “h” for “hours”
as §5, with “alternating” for “alternatiing”
as §2, with “test (Met),” for “test(met),”, “min” for “minute”

[5] = test system: maximal electroshock seizures (MES); experiment: animal or person; format: in vivo, male Carworth Farms number-1 mice; details: for MES: mice i.p.; for minimal effective dose: Mus musculus, ip
Procedure: as §1, §5
as §1, with “Biological testing--Compounds” for “Compounds”, “number-one” for “number-1”, “min” for “minutes”, “h” for “hours”
as §5, with “alternating” for “alternatiing”

[6] = Rotorod test for neurological deficit (TOX) in mice; format: in vivo, male Carworth Farms number-1 mice; details: mouse, in vivo, ip
Procedure: as §1, §3
as §1, with “Biological testing--Compounds” for “Compounds”, “number-one” for “number-1”, “min” for “minutes”, “h” for “hours”
as §4

[7] = Table 7, value without parentheses = effective dose (neurologic deficit)
[8] = Table 7, value without parentheses = effective dose, read-out: Effective Intraperitoneal Dose, Met
[9] = mice, intraperitoneal, read-out: dose active in Met test
[10] = Table 7, value without parentheses = effective dose, read-out: Effective Intraperitoneal Dose, MES
[11] = mice, intraperitoneal, read-out: dose active in MES test

SMILES	[3H]glycine binding inhibition [3]	anticonvulsant activity (words) [4]	minimal effective dose [1, 8] [mg/kg]	minimal effective dose [1, 9] [mg/kg]	MES ([5]; 30 minutes, 30 mg/kg)	MES ([5]; 30 minutes, 100 mg/kg)	MES ([5]; 30 minutes, 300 mg/kg)	MES ([5]; 4 hours, 30 mg/kg)	MES ([5]; 4 hours, 100 mg/kg)	MES ([5]; 4 hours, 300 mg/kg)	Sc MET ([1]; 30 minutes, 30 mg/kg)	Sc MET ([1]; 30 minutes, 100 mg/kg)	Sc MET ([1]; 30 minutes, 300 mg/kg)	Sc MET ([1]; 4 hours, 30 mg/kg)	Sc MET ([1]; 4 hours, 100 mg/kg)	Sc MET ([1]; 4 hours, 300 mg/kg)	CLASS [4]	also measured
O=C(O)c1cccc(C(=O)O)n1 [2,6-pyridine dicarboxylic acid, pyridine-2,6-dicarboxylic acid]	no glycine displacement; also recorded: did neither	did neither	–	–	–	–	–	–	–	–	–	–	–	–	–	–	–	(Maximum Ineffective) Intraperitoneal Dose, Met [1]: 300 mg/kg; Effective Intraperitoneal Dose, Rotorod [2, 7]: 300 mg/kg; crossing of the blood-brain barrier ([2]; evidenced by the rotorod test): did cross the blood-brain barrier; dose causing neurological deficit on rotorod ([2]; mice, intraperitoneal): 300 mg/kg
CCOC(=O)c1cccc(C(=O)OCC)n1 [2,6-pyridine-di-(ethyl carboxylate), 2,6-pyridine-di(ethyl carboxylate)]	potent [^3 H]glycine displacement	had anticonvulsant activity	100	100	–	–	–	–	–	–	–	–	–	–	–	–	–	Effective Intraperitoneal Dose, Rotorod ([2]; mouse, in vivo, ip): 300 mg/kg; dose causing neurological deficit on rotorod ([2]; mouse, in vivo, ip): 300 mg/kg; [3H]glycine binding inhibition ([3]; listed as diethyl ester of pyridine-2,6-dicarboxylic acid): inhibited glycine binding; minimal effective dose [4]: 100 mg/kg
Nc1cc(C(=O)O)nc2cc(Cl)cc(Cl)c12 [4-amino-5,7-dichloro-2-quinoline carboxylate acid]	–	lack of anticonvulsive activity	–	–	0/1	0/3	0/1	0/1	0/3	0/1	0/1	0/1	0/1	0/1	0/1	0/1	3	–
COC(=O)c1cc(N)c2c(Cl)cc(Cl)cc2n1 [4-amino-5,7-dichloro-2-quinoline carboxylate methyl ester]	–	–	–	–	0/1	0/3	0/1	0/1	1/3	1/1	0/1	1/1	0/1	0/1	0/1	0/1	1	–
CNc1cc(C(=O)OC)nc2cc(Cl)cc(Cl)c12 [4-methylamino-5,7-dichloro quinoline 2-carboxylate methyl ester]	–	inactive	–	–	0/1	0/3	0/1	0/1	0/3	0/1	0/1	0/1	0/1	0/1	0/1	0/1	3	anticonvulsant activity (words) ([4]; listed as 4-methylamino-5,7-dichloro quinoline 2-carboxylate methyl ester): lack of anticonvulsant activity; anticonvulsant activity (words) ([4]; listed as 5,7-di-Cl-4-methylamino-2-methyl ester): inactive in anticonvulsant testing
CCOC(=O)c1cc(O)c2c(Cl)cc(Cl)cc2n1 [5,7 0-di-Cl-2-ethyl ester, 5,7-dichloro-kynurenate ethyl ester]	–	inactive	–	–	–	–	–	–	–	–	–	–	–	–	–	–	–	–
CNc1cc(C(=O)O)nc2cc(Cl)cc(Cl)c12 [5,7-di-Cl-4-methylamino-kyn-2-COOH, 4-methylamino-5,7-dichloro-2-quinoline carboxylic acid]	best inhibitor of [^3 H]glycine binding	–	300	–	0/1	0/3	1/1	0/1	0/3	0/1	0/2	0/1	1/1	0/1	0/1	0/1	2	minimal effective dose [5, 10]: 100 mg/kg; minimal effective dose [5, 11]: 100 mg/kg; Effective Intraperitoneal Dose, Rotorod ([2]; mouse, in vivo, ip): 100 mg/kg; dose causing neurological deficit on rotorod ([2]; mouse, in vivo, ip): 300 mg/kg; TOX comment ([2]; mouse, in vivo, ip, 300 mg/kg): Unable to hold onto rotorod; minimal effective dose [4]: ≤ 100 mg/kg
CCOC(=O)c1cc2cc(Cl)ccc2[nH]1 [5-Cl-2-ethyl ester]	inactive	inactive; also recorded: abolished activity	–	–	–	–	–	–	–	–	–	–	–	–	–	–	–	–
O=C(O)c1cc2cc(Cl)ccc2[nH]1 [5-Cl-indole-2-COOH, 5-chloro-indole-2-carboxylic acid]	binding competition similar to that seen with the 5-fluoro derivative	–	100	100	–	–	–	–	–	–	–	–	–	–	–	–	–	Met activity ([1]; mice, intraperitoneal): Met protection; Effective Intraperitoneal Dose, Rotorod ([2]; mouse, in vivo, ip): 300 mg/kg; dose causing neurological deficit on rotorod ([2]; mouse, in vivo, ip): 300 mg/kg
CCOC(=O)c1cc2cc(O)ccc2[nH]1 [5-hydroxyl-2-ethyl ester]	binding activity	no CNS effects	–	–	–	–	–	–	–	–	–	–	–	–	–	–	–	–
COc1ccc2[nH]c(C(=O)O)cc2c1 [5-methoxy-indole-2-COOH]	–	no anticonvulsant activity	–	–	–	–	–	–	–	–	–	–	–	–	–	–	–	(Maximum Ineffective) Intraperitoneal Dose, Met [1]: 300 mg/kg; Effective Intraperitoneal Dose, Rotorod ([2]; mouse, in vivo, ip): 300 mg/kg
CCOC(=O)c1cc2cc(OC)ccc2[nH]1 [5-methoxy-indole-2-ethyl ester, 5-methoxy-indole-2-ethyl carboxylate]	did not compete for [^3 H]glycine binding; also recorded: did not inhibit [^3 H]glycine binding	–	100	100	–	–	–	–	–	–	–	–	–	–	–	–	–	minimal effective dose [5, 10]: 300 mg/kg; minimal effective dose [5, 11]: 300 mg/kg; Effective Intraperitoneal Dose, Rotorod [2, 7]: 300 mg/kg; dose causing neurological deficit on rotorod ([2]; mice, intraperitoneal): 300 mg/kg
Cc1cc2c(O)cc(C(=O)O)nc2cc1Cl [6-CH3-7-Cl-2-COOH]	glycine-binding inhibition	no anticonvulsant activity	–	–	–	–	–	–	–	–	–	–	–	–	–	–	–	–
Cc1c(Cl)ccc2c(O)cc(C(=O)O)nc12 [7-Cl-8-methyl-kyn-2-COOH]	–	–	300	300	–	–	–	–	–	–	–	–	–	–	–	–	–	NOAEL [6]: 300 mg/kg
CCOC(=O)c1cc(O)c2ccc(Cl)cc2n1 [7-Cl-kyn-2-ethyl ester]	–	–	300	300	–	–	–	–	–	–	–	–	–	–	–	–	–	NOAEL [6]: 300 mg/kg
CCCCOC(=O)c1cc(NC)c2c(Cl)cc(Cl)cc2n1 [Butyl 4-Methylamino-5,7-dichloro-2-quinoline Carboxylate]	–	inactive	–	–	0/1	0/3	0/1	0/1	0/3	0/1	0/1	0/1	0/1	0/1	0/1	0/1	31	anticonvulsant activity (words) ([4]; listed as 5,7-di-Cl-4-methylamino-2-butyl ester): inactive in anticonvulsant testing; anticonvulsant activity (words) ([4]; listed as ester-4-methylamino-5,7-dichloro quinoline-2-carboxylate n-butyryl): lack of anticonvulsant activity
